From patent US20220089598A1, “INHIBITORS OF HUMAN IMMUNODEFICIENCY VIRUS REPLICATION” (VIIV HEALTHCARE UK (No. 5) LIMITED, priority 2018, published 2022)

Tests used:
[1] = test system: recombinant NL4-3 virus (Renilla luciferase) in MT-2 cells; assay: HIV cell culture assay (antiviral activity, luciferase readout); assay type: cell-based; conditions: Renilla, NL43
Procedure: HIV cell culture assay—MT-2 cells, 293T cells and the proviral DNA clone of NL4-3 virus were obtained from the NIH AIDS Research and Reference Reagent Program. MT-2 cells were propagated in RPMI 1640 media supplemented with 10% heat inactivated fetal bovine serum (FBS), 100 μg/ml penicillin G and up to 100 units/mL streptomycin. The 293T cells were propagated in DMEM media supplemented with 10% heat inactivated FBS, 100 μg/mL penicillin G and 100 μg/mL streptomycin. A recombinant NL4-3 proviral clone, in which a section of the nef gene was replaced with the Renilla luciferase gene, was used to make the reference virus used in these studies. The recombinant virus was prepared through transfection of the recombinant NL4-3 proviral clone into 293T cells using Transit-293 Transfection Reagent from Mirus Bio LLC (Madison, Wis.). Supernatent was harvested after 2-3 days and the amount of virus present was titered in MT-2 cells using luciferase enzyme activity as a marker by measuring luciferase enzyme activity. Luciferase was quantitated using the EnduRen Live Cell Substrate from Promega (Madison, Wis.). Antiviral activities of compounds toward the recombinant virus were quantified by measuring luciferase activity in MT-2 cells infected for 4-5 days with the recombinant virus in the presence of serial dilutions of the compound.
The 50% effective concentration (EC50) was calculated by using the exponential form of the median effect equation where (Fa)=1/[1+(ED50/drug conc.)m] (Johnson V A, Byington R T. Infectivity Assay. In Techniques in HIV Research. ed. Aldovini A, Walker B D. 71-76. New York: Stockton Press. 1990).

[2] = Compound cytotoxicity, XTT-based colorimetric assay; assay type: cell-based; conditions: human; uninfected MT2 cells, day 4, XTT assay
Procedure: Compound cytotoxicity and the corresponding CC50 values were determined using the same protocol as described in the antiviral assay except that uninfected cells were used. Cytotoxicity was assessed on day 4 in uninfected MT2 cells by using a XTT (2,3-bis[2-Methoxy-4-nitro-5-sulfophenyl]-2H-tetrazolium-5-carboxyanilide inner salt)-based colorimetric assay (Sigma-Aldrich, St Louis, Mo.).

Q: For `Cn1nc(NS(C)(=O)=O)c2c(Cl)ccc(-n3c([C@H](Cc4cc(F)cc(F)c4)NC(=O)Cn4nc(C(F)F)c5c4C(F)(F)[C@@H]4C[C@H]54)nc4nc(-c5cc(F)c(F)c(F)c5)ccc4c3=O)c21` (atropisomer, axis not shown; (P)) [Example 12, N—((S)-1-((3P)-3-(4-chloro-1-methyl-3-(methylsulfonamido)-1H-indazol-7-yl)-4-oxo-7-(3,4,5-trifluorophenyl)-3,4-dihydropyrido[2,3-d]pyrimidin-2-yl)-2-(3,5-difluorophenyl)ethyl)-2-((3bS,4aR)-3-(difluoromethyl)-5,5-difluoro-3b,4,4a,5-tetrahydro-1H-cyclopropa[3,4]cyclopenta[1,2-c]pyrazol-1-yl)acetamide], which EC50 [1] is on record?
A: 0.21 nM

Q: What about the CC50 at 4 day [2] of the same molecule?
A: > 100 nM

Q: Which EC50 [1] does the source give for `Cn1nc(NS(C)(=O)=O)c2c(Cl)ccc(-n3c([C@H](Cc4cc(F)cc(F)c4)NC(=O)Cn4nc(C(F)F)c5c4C(F)(F)[C@@H]4C[C@H]54)nc4nc(-c5ccc(C(F)(F)F)cc5)ccc4c3=O)c21` (atropisomer, axis not shown; (P)) [Example 14, N—((S)-1-((3P)-3-(4-chloro-1-methyl-3-(methylsulfonamido)-1H-indazol-7-yl)-4-oxo-7-(4-(trifluoromethyl)phenyl)-3,4-dihydropyrido[2,3-d]pyrimidin-2-yl)-2-(3,5-difluorophenyl)ethyl)-2-((3bS,4aR)-3-(difluoromethyl)-5,5-difluoro-3b,4,4a,5-tetrahydro-1H-cyclopropa[3,4]cyclopenta[1,2-c]pyrazol-1-yl)acetamide] here?
A: 0.084 nM

Q: And the CC50 at 4 day [2]?
A: > 100 nM

Q: What does the source list for `Cn1nc(NS(C)(=O)=O)c2c(Cl)ccc(-n3c([C@H](Cc4cc(F)cc(F)c4)NC(=O)Cn4nc(C(F)F)c5c4C(F)(F)[C@@H]4C[C@H]54)nc4nc(-c5ccc(F)c(F)c5F)ccc4c3=O)c21` (atropisomer, axis not shown; (P)) [Example 15, N—((S)-1-((3P)-3-(4-chloro-1-methyl-3-(methylsulfonamido)-1H-indazol-7-yl)-4-oxo-7-(2,3,4-trifluorophenyl)-3,4-dihydropyrido[2,3-d]pyrimidin-2-yl)-2-(3,5-difluorophenyl)ethyl)-2-((3bS,4aR)-3-(difluoromethyl)-5,5-difluoro-3b,4,4a,5-tetrahydro-1H-cyclopropa[3,4]cyclopenta[1,2-c]pyrazol-1-yl)acetamide]?
A: EC50 [1]: 0.035 nM; CC50 at 4 day [2]: > 100 nM

Q: For `Cn1nc(NS(C)(=O)=O)c2c(Cl)ccc(-n3c([C@H](Cc4cc(F)cc(F)c4)NC(=O)Cn4nc(C(F)F)c5c4C(F)(F)[C@@H]4C[C@H]54)nc4nc(-c5ccc(F)cc5CO)ccc4c3=O)c21` (atropisomer, axis not shown; (P)) [Example 16, N—((S)-1-((3P)-3-(4-chloro-1-methyl-3-(methylsulfonamido)-1H-indazol-7-yl)-7-(4-fluoro-2-(hydroxymethyl)phenyl)-4-oxo-3,4-dihydropyrido[2,3-d]pyrimidin-2-yl)-2-(3,5-difluorophenyl)ethyl)-2-((3bS,4aR)-3-(difluoromethyl)-5,5-difluoro-3b,4,4a,5-tetrahydro-1H-cyclopropa[3,4]cyclopenta[1,2-c]pyrazol-1-yl)acetamide], which EC50 [1] is on record?
A: 0.056 nM

Q: And the CC50 at 4 day [2]?
A: > 500 nM

Q: Which EC50 [1] does the source give for `Cn1nc(NS(C)(=O)=O)c2c(Cl)ccc(-n3c([C@H](Cc4cc(F)cc(F)c4)NC(=O)Cn4nc(C(F)(F)F)c5c4C(F)(F)[C@@H]4C[C@H]54)nc4nc(-c5ccccc5F)ccc4c3=O)c21` (atropisomer, axis not shown; (P)) [Example 17, N—((S)-1-((3P)-3-(4-chloro-1-methyl-3-(methylsulfonamido)-1H-indazol-7-yl)-7-(2-fluorophenyl)-4-oxo-3,4-dihydropyrido[2,3-d]pyrimidin-2-yl)-2-(3,5-difluorophenyl)ethyl)-2-((3bS,4aR)-5,5-difluoro-3-(trifluoromethyl)-3b,4,4a,5-tetrahydro-1H-cyclopropa[3,4]cyclopenta[1,2-c]pyrazol-1-yl)acetamide] here?
A: 0.065 nM

Q: And the CC50 at 4 day [2]?
A: > 100 nM

Q: Which EC50 [1] does the source give for `Cn1nc(NS(C)(=O)=O)c2c(Cl)ccc(-n3c([C@H](Cc4cc(F)cc(F)c4)NC(=O)Cn4nc(C(F)F)c5c4C(F)(F)[C@@H]4C[C@H]54)nc4nc(-c5ccc(F)cc5)ccc4c3=O)c21` (atropisomer, axis not shown; (P)) [Example 18, N—((S)-1-((3P)-3-(4-chloro-1-methyl-3-(methylsulfonamido)-1H-indazol-7-yl)-7-(4-fluorophenyl)-4-oxo-3,4-dihydropyrido[2,3-d]pyrimidin-2-yl)-2-(3,5-difluorophenyl)ethyl)-2-((3bS,4aR)-3-(difluoromethyl)-5,5-difluoro-3b,4,4a,5-tetrahydro-1H-cyclopropa[3,4]cyclopenta[1,2-c]pyrazol-1-yl)acetamide] here?
A: 0.036 nM

Q: And the CC50 at 4 day [2]?
A: > 100 nM

Q: Which results are given for `Cn1nc(NS(C)(=O)=O)c2c(Cl)ccc(-n3c([C@H](Cc4cc(F)cc(F)c4)NC(=O)Cn4nc(C(F)F)c5c4C(F)(F)[C@@H]4C[C@H]54)nc4nc(-c5ccc(F)cc5S(C)(=O)=O)ccc4c3=O)c21` (atropisomer, axis not shown; (P)) [Example 19, N—((S)-1-((3P)-3-(4-chloro-1-methyl-3-(methylsulfonamido)-1H-indazol-7-yl)-7-(4-fluoro-2-(methylsulfonyl)phenyl)-4-oxo-3,4-dihydropyrido[2,3-d]pyrimidin-2-yl)-2-(3,5-difluorophenyl)ethyl)-2-((3bS,4aR)-3-(difluoromethyl)-5,5-difluoro-3b,4,4a,5-tetrahydro-1H-cyclopropa[3,4]cyclopenta[1,2-c]pyrazol-1-yl)acetamide]?
A: EC50 [1]: 0.12 nM; CC50 at 4 day [2]: > 500 nM

Q: For `Cn1nc(NS(C)(=O)=O)c2c(Cl)ccc(-n3c([C@H](Cc4cc(F)cc(F)c4)NC(=O)Cn4nc(C(F)F)c5c4C(F)(F)[C@@H]4C[C@H]54)nc4nc(-c5cc(F)cc(F)c5)ccc4c3=O)c21` (atropisomer, axis not shown; (P)) [Example 21, N—((S)-1-((3P)-3-(4-chloro-1-methyl-3-(methylsulfonamido)-1H-indazol-7-yl)-7-(3,5-difluorophenyl)-4-oxo-3,4-dihydropyrido[2,3-d]pyrimidin-2-yl)-2-(3,5-difluorophenyl)ethyl)-2-((3bS,4aR)-3-(difluoromethyl)-5,5-difluoro-3b,4,4a,5-tetrahydro-1H-cyclopropa[3,4]cyclopenta[1,2-c]pyrazol-1-yl)acetamide], which EC50 [1] is on record?
A: 0.08 nM

Q: What about the CC50 at 4 day [2] of the same molecule?
A: > 100 nM

Q: Which EC50 [1] does the source give for `Cn1nc(NS(C)(=O)=O)c2c(Cl)ccc(-n3c([C@H](Cc4cc(F)cc(F)c4)NC(=O)Cn4nc(C(F)F)c5c4C(F)(F)[C@@H]4C[C@H]54)nc4nc(-c5ccc(F)c(Cl)c5F)ccc4c3=O)c21` (atropisomer, axis not shown; (P)) [Example 22, N—((S)-1-((3P)-3-(4-chloro-1-methyl-3-(methylsulfonamido)-1H-indazol-7-yl)-7-(3-chloro-2,4-difluorophenyl)-4-oxo-3,4-dihydropyrido[2,3-d]pyrimidin-2-yl)-2-(3,5-difluorophenyl)ethyl)-2-((3bS,4aR)-3-(difluoromethyl)-5,5-difluoro-3b,4,4a,5-tetrahydro-1H-cyclopropa[3,4]cyclopenta[1,2-c]pyrazol-1-yl)acetamide] here?
A: 0.1 nM

Q: What about the CC50 at 4 day [2] of the same molecule?
A: > 100 nM
